Data reported in patent US20030059483A1, “Color stable hypochlorous sanitizer and methods” (priority 1999, published 2003).

Columns and labels:
Format in all cases: physicochemical
[1] = Color longevity at varying active chlorine and dye level, pH 5.8; conditions: for Initial Color/Appearance / Time needed for solution to become colorless: 1 ppm dye
[2] = Dye and chlorine stability test, effect of pH; conditions: 1 ppm dye; for Initial Color/Appearance: additional formulations; for Initial Color/Appearance / Time needed for solution to become colorless: 100 ppm active chlorine; for Color/Appearance: initial 100 ppm chlorine
[3] = Chlorine stability of acid sanitizer solutions; conditions: chlorine 12 ppm, pH 5.13

## COc1cc(S(=O)(=O)[O-])c(C)cc1N=Nc1c(O)ccc2cc(S(=O)(=O)[O-])ccc12.[Na+].[Na+] [FD&C Red #40]
[1]; 10 ppm available chlorine
  Initial Color/Appearance: visible
  Time needed for solution to become colorless: more than 6.0 hours
[1]; 30 ppm available chlorine
  Initial Color/Appearance: visible
  Time needed for solution to become colorless: 6.0 h
[1]; 50 ppm available chlorine
  Initial Color/Appearance: visible
  Time needed for solution to become colorless: 5.0 h
[1]; 80 ppm available chlorine
  Initial Color/Appearance: visible
  Time needed for solution to become colorless: 4.5 h
[1]; 100 ppm available chlorine
  Initial Color/Appearance: visible
  Time needed for solution to become colorless: 3.0 h
[1]; dye level 0.1 to 0.4 wt-%, 100 ppm available chlorine
  relationship between dye concentration and color longevity: linear relationship between dye concentration and color longevity
[2]; pH buffered at 2
  Initial Color/Appearance: colorless
  Time needed for solution to become colorless: none
[2]; pH buffered at 4
  Initial Color/Appearance: visible color
  Time needed for solution to become colorless: 2.5 h
[2]; pH buffered at 5.4
  Initial Color/Appearance: visible color
  Time needed for solution to become colorless: 15 h
[2]; pH buffered at 5.8
  Initial Color/Appearance: visible color
  Time needed for solution to become colorless: 5.0 h
[2]; pH buffered at 6
  Initial Color/Appearance: visible color
  Time needed for solution to become colorless: 4.0 h
[2]; pH buffered at 8
  Initial Color/Appearance: visible color
  Time needed for solution to become colorless: 0.25 h
[2]; pH buffered at 10
  Initial Color/Appearance: colorless
  Time needed for solution to become colorless: none
[2]; pH buffered at 12
  Initial Color/Appearance: colorless
  Time needed for solution to become colorless: none
[2]; pH buffered at 2, 0.0 hours
  Color/Appearance: color gone immediately
[2]; pH buffered at 2, 175 hours
  Color/Appearance: no color
[2]; pH buffered at 4, 2.5 hours
  Color/Appearance: color gone
[2]; pH buffered at 4, 175 hours
  Color/Appearance: no color
[2]; pH buffered at 6, 5.0 hours
  Color/Appearance: slightly visible
[2]; pH buffered at 6, 175 hours
  Color/Appearance: no color
[2]; pH buffered at 8, 0.25 hours
  Color/Appearance: color gone
[2]; pH buffered at 8, 175 hours
  Color/Appearance: no color
[2]; pH buffered at 10, 0.0 hours
  Color/Appearance: color gone immediately
[2]; pH buffered at 10, 175 hours
  Color/Appearance: no color
[2]; pH buffered at 12, 0.0 hours
  Color/Appearance: color gone immediately
[2]; pH buffered at 12, 175 hours
  Color/Appearance: no color

## Chlorinated trisodium phosphate [Chlorinated TSP]
[3]; 0 time
  Chlorine (ppm) Conc. 0 Time: 12.7 ppm
[3]; 4 hours
  Chlorine (ppm) Conc. 4 Hours: 9.93 ppm
[3]; 24 hours
  Chlorine (ppm) Conc. 24 Hours: 5.67 ppm
